What all share (type): functional
Experiment [1] relates to Rattus norvegicus. Kind of experiment: % inhibition against anaphylactic response in rat at dose 50 mg/kg administered orally after 120 min. The settings on record: 2 h, route oral.
In experiment [2] the test system is Rattus norvegicus. Kind of experiment: % inhibition against anaphylactic response in rat at dose 50 mg/kg administered orally after 60 min. The following applies: 1 h, route oral.
Experiment [3] concerns Rattus norvegicus. Kind of experiment: % inhibition against anaphylactic response in rat at dose 10 mg/kg administered orally after 60 min. The following applies: 1 h, route oral.

For orientation: inhibition in vivo means how much of the control response was suppressed. A high value points to strong suppression. Regarding `COc1cc2c(cc1OC)C(COCCN1CCN(c3ccccc3OC)CC1)OCCC2` (stereo unspecified), the inhibition in vivo at 50 mg/kg is 20% in experiment [1] and 100% in experiment [2].
For `COc1cc2c(cc1OC)C(COCCN1CCN(c3ccc(F)cc3)CC1)OCCC2` (stereo unspecified), in that order: 0% and 52%.
For `COc1cc2c(cc1OC)C(COCCNCCO)OCCC2` (stereo unspecified), in that order: 0% and 0%.
On to `COc1cc2c(cc1OC)C(COCCN1CCN(c3ccccn3)CC1)OCCC2` (stereo unspecified), for which the results for the inhibition in vivo at 50 mg/kg in experiment [1] and in experiment [2] were 35% and 94%, respectively.
For `COc1cc2c(cc1OC)C(COCCN1CCN(C)CC1)OCCC2` (stereo unspecified), in that order: 0% and 0%.
In turn, `O=C(O)c1cc(=O)c2c(OCC(O)COc3cccc4oc(C(=O)O)cc(=O)c34)cccc2o1` [CROMOLYN SODIUM] registered an inhibition in vivo at 10 mg/kg in experiment [3] of 100%.

The values above are taken from ChEMBL document CHEMBL1121512, “1-[Ethoxyamino)methyl]-1,3,4,5-tetrahydro-7,8-dimethoxy-2-benzoxepins: a new class of antianaphylactic agents” (1980).
